From the NIST ThermoML archive (doi:10.1016/j.fluid.2012.07.027)

Details: Liquid, Ebulliometric method (Recirculating still)

CCCCCOCCOCCOCCCCC [1-(2-(2-(pentyloxy)ethoxy)ethoxy)pentane]
Details	vapor or sublimation pressure [kPa]
427.5 K	2
437.5 K	3
444.6 K	4
450.3 K	5
455.1 K	6
459.3 K	7
461.2 K	7.5
463 K	8
466.2 K	9
469.1 K	10
471.7 K	11
474.1 K	12
476.3 K	13
478.6 K	14
480.7 K	15
488.8 K	20
495.7 K	25
